Measurements taken from the NIST ThermoML archive (doi:10.1016/j.jct.2010.03.022).
± gives the expanded uncertainty stated by the source.

Settings: for viscosity: 101.3 kPa; for viscosity / mass density: Liquid; for surface tension liquid-gas: Ring tensiometer

CCO [ethanol]
Settings	surface tension liquid-gas [mN/m]	viscosity [mPa·s]
273.15 K	–	1.832 ± 0.042
274.77 K	23.59 ± 0.35	–
274.87 K	23.54 ± 0.35	–
278.6 K	–	1.649 ± 0.039
280.56 K	23.15 ± 0.35	1.537 ± 0.036
281.05 K	22.95 ± 0.35	–
281.17 K	23.09 ± 0.35	1.527 ± 0.036
284.25 K	22.78 ± 0.34	1.455 ± 0.034
288.21 K	22.7 ± 0.34	1.338 ± 0.032
288.23 K	22.61 ± 0.34	–
288.65 K	22.63 ± 0.34	–
293.15 K	22.36 ± 0.34	1.203 ± 0.029
294.19 K	22.4 ± 0.34	1.192 ± 0.029
298.15 K	22.25 ± 0.34	1.096 ± 0.027
298.41 K	22.07 ± 0.33	1.088 ± 0.027
298.55 K	22.06 ± 0.33	1.088 ± 0.027
303.15 K	21.63 ± 0.33	1.002 ± 0.025
303.2 K	21.66 ± 0.33	1 ± 0.025
308.23 K	21.33 ± 0.33	0.914 ± 0.023
311.79 K	21.09 ± 0.32	0.855 ± 0.022
318.99 K	20.2 ± 0.31	0.756 ± 0.019
321.15 K	–	0.73 ± 0.019
323.15 K	–	0.715 ± 0.019
328.15 K	–	0.656 ± 0.017
333.15 K	–	0.602 ± 0.016
338.16 K	–	0.571 ± 0.015
343.15 K	–	0.504 ± 0.014
346.15 K	–	0.488 ± 0.014

Settings	mass density [kg/m3]
278.15 K, 100 kPa	803.3 ± 1.3
278.15 K, 2000 kPa	805.9 ± 1.3
278.15 K, 4000 kPa	807.3 ± 1.4
278.15 K, 6000 kPa	809.2 ± 1.5
278.15 K, 8000 kPa	810.6 ± 1.6
278.15 K, 10000 kPa	812.7 ± 1.6
278.15 K, 15000 kPa	815.8 ± 1.8
278.15 K, 20000 kPa	821 ± 2
278.15 K, 25000 kPa	823.4 ± 2.2
278.15 K, 30000 kPa	823.8 ± 2.4
278.15 K, 35000 kPa	825.8 ± 2.7
283.15 K, 100 kPa	799.5 ± 1.3
283.15 K, 2000 kPa	801.7 ± 1.4
283.15 K, 4000 kPa	803 ± 1.4
283.15 K, 6000 kPa	805.1 ± 1.5
283.15 K, 8000 kPa	806.6 ± 1.6
283.15 K, 10000 kPa	808.5 ± 1.7
283.15 K, 15000 kPa	811.8 ± 1.9
283.15 K, 20000 kPa	816.4 ± 2.1
283.15 K, 25000 kPa	818.9 ± 2.3
283.15 K, 30000 kPa	819.9 ± 2.5
283.15 K, 35000 kPa	822.2 ± 2.7
288.15 K, 100 kPa	795.3 ± 1.3
288.15 K, 2000 kPa	797.5 ± 1.4
288.15 K, 4000 kPa	798.8 ± 1.4
288.15 K, 6000 kPa	800.9 ± 1.5
288.15 K, 8000 kPa	802.6 ± 1.6
288.15 K, 10000 kPa	804.2 ± 1.7
288.15 K, 15000 kPa	807.8 ± 1.9
288.15 K, 20000 kPa	811.9 ± 2.1
288.15 K, 25000 kPa	814.5 ± 2.3
288.15 K, 30000 kPa	816 ± 2.5
288.15 K, 35000 kPa	818.6 ± 2.8
293.15 K, 100 kPa	791.2 ± 1.3
293.15 K, 2000 kPa	793.2 ± 1.4
293.15 K, 4000 kPa	794.5 ± 1.4
293.15 K, 6000 kPa	796.7 ± 1.5
293.15 K, 8000 kPa	798.5 ± 1.6
293.15 K, 10000 kPa	800 ± 1.7
293.15 K, 15000 kPa	803.7 ± 1.9
293.15 K, 20000 kPa	807.4 ± 2.1
293.15 K, 25000 kPa	810.2 ± 2.3
293.15 K, 30000 kPa	812.2 ± 2.6
293.15 K, 35000 kPa	814.9 ± 2.8
298.15 K, 100 kPa	785 ± 1.3
298.15 K, 2000 kPa	788.8 ± 1.4
298.15 K, 4000 kPa	790.3 ± 1.5
298.15 K, 6000 kPa	792.5 ± 1.5
298.15 K, 8000 kPa	794.3 ± 1.6
298.15 K, 10000 kPa	795.8 ± 1.7
298.15 K, 15000 kPa	799.7 ± 1.9
298.15 K, 20000 kPa	803.1 ± 2.1
298.15 K, 25000 kPa	806 ± 2.4
298.15 K, 30000 kPa	808.3 ± 2.6
298.15 K, 35000 kPa	811.3 ± 2.9
303.15 K, 100 kPa	781.6 ± 1.3
303.15 K, 2000 kPa	784.4 ± 1.4
303.15 K, 4000 kPa	785.9 ± 1.5
303.15 K, 6000 kPa	788.2 ± 1.6
303.15 K, 8000 kPa	790.2 ± 1.6
303.15 K, 10000 kPa	791.6 ± 1.7
303.15 K, 15000 kPa	795.6 ± 2
303.15 K, 20000 kPa	798.8 ± 2.2
303.15 K, 25000 kPa	801.8 ± 2.4
303.15 K, 30000 kPa	804.5 ± 2.7
303.15 K, 35000 kPa	807.6 ± 2.9
308.15 K, 100 kPa	777.9 ± 1.3
308.15 K, 2000 kPa	780 ± 1.4
308.15 K, 4000 kPa	781.6 ± 1.5
308.15 K, 6000 kPa	783.9 ± 1.6
308.15 K, 8000 kPa	785.9 ± 1.7
308.15 K, 10000 kPa	787.3 ± 1.7
308.15 K, 15000 kPa	791.5 ± 2
308.15 K, 20000 kPa	794.7 ± 2.2
308.15 K, 25000 kPa	797.8 ± 2.4
308.15 K, 30000 kPa	800.7 ± 2.7
308.15 K, 35000 kPa	803.9 ± 3
313.15 K, 100 kPa	774 ± 1.3
313.15 K, 2000 kPa	775.4 ± 1.4
313.15 K, 4000 kPa	777.2 ± 1.5
313.15 K, 6000 kPa	779.5 ± 1.6
313.15 K, 8000 kPa	781.7 ± 1.7
313.15 K, 10000 kPa	783.1 ± 1.8
313.15 K, 15000 kPa	787.4 ± 2
313.15 K, 20000 kPa	790.6 ± 2.2
313.15 K, 25000 kPa	793.8 ± 2.5
313.15 K, 30000 kPa	797 ± 2.8
313.15 K, 35000 kPa	800.2 ± 3
318.15 K, 100 kPa	769.7 ± 1.3
318.15 K, 2000 kPa	770.8 ± 1.4
318.15 K, 4000 kPa	772.8 ± 1.5
318.15 K, 6000 kPa	775.1 ± 1.6
318.15 K, 8000 kPa	777.3 ± 1.7
318.15 K, 10000 kPa	778.8 ± 1.8
318.15 K, 15000 kPa	783.2 ± 2
318.15 K, 20000 kPa	786.5 ± 2.3
318.15 K, 25000 kPa	789.9 ± 2.5
318.15 K, 30000 kPa	793.2 ± 2.8
318.15 K, 35000 kPa	796.5 ± 3.1
323.15 K, 100 kPa	765.2 ± 1.3
323.15 K, 2000 kPa	766.2 ± 1.4
323.15 K, 4000 kPa	768.4 ± 1.5
323.15 K, 6000 kPa	770.7 ± 1.6
323.15 K, 8000 kPa	772.9 ± 1.7
323.15 K, 10000 kPa	774.5 ± 1.8
323.15 K, 15000 kPa	779 ± 2.1
323.15 K, 20000 kPa	782.6 ± 2.3
323.15 K, 25000 kPa	786.1 ± 2.6
323.15 K, 30000 kPa	789.5 ± 2.9
323.15 K, 35000 kPa	792.8 ± 3.1
328.15 K, 100 kPa	760.4 ± 1.4
328.15 K, 2000 kPa	761.5 ± 1.4
328.15 K, 4000 kPa	763.9 ± 1.5
328.15 K, 6000 kPa	766.2 ± 1.6
328.15 K, 8000 kPa	768.5 ± 1.7
328.15 K, 10000 kPa	770.3 ± 1.8
328.15 K, 15000 kPa	774.8 ± 2.1
328.15 K, 20000 kPa	778.7 ± 2.3
328.15 K, 25000 kPa	782.3 ± 2.6
328.15 K, 30000 kPa	785.7 ± 2.9
328.15 K, 35000 kPa	789 ± 3.2
333.15 K, 100 kPa	755.4 ± 1.4
333.15 K, 2000 kPa	756.7 ± 1.5
333.15 K, 4000 kPa	759.4 ± 1.6
333.15 K, 6000 kPa	761.6 ± 1.7
333.15 K, 8000 kPa	764 ± 1.7
333.15 K, 10000 kPa	766 ± 1.8
333.15 K, 15000 kPa	770.6 ± 2.1
333.15 K, 20000 kPa	774.9 ± 2.4
333.15 K, 25000 kPa	778.6 ± 2.7
333.15 K, 30000 kPa	782 ± 3
333.15 K, 35000 kPa	785.2 ± 3.2
338.15 K, 100 kPa	750 ± 1.4
338.15 K, 2000 kPa	751.8 ± 1.5
338.15 K, 4000 kPa	754.9 ± 1.6
338.15 K, 6000 kPa	757 ± 1.7
338.15 K, 8000 kPa	759.5 ± 1.8
338.15 K, 10000 kPa	761.7 ± 1.9
338.15 K, 15000 kPa	766.3 ± 2.1
338.15 K, 20000 kPa	771.2 ± 2.4
338.15 K, 25000 kPa	775 ± 2.7
338.15 K, 30000 kPa	778.3 ± 3
338.15 K, 35000 kPa	781.4 ± 3.3
343.15 K, 100 kPa	744.3 ± 1.4
343.15 K, 2000 kPa	746.8 ± 1.5
343.15 K, 4000 kPa	750.3 ± 1.6
343.15 K, 6000 kPa	752.3 ± 1.7
343.15 K, 8000 kPa	754.9 ± 1.8
343.15 K, 10000 kPa	757.3 ± 1.9
343.15 K, 15000 kPa	762 ± 2.2
343.15 K, 20000 kPa	767.6 ± 2.4
343.15 K, 25000 kPa	771.5 ± 2.7
343.15 K, 30000 kPa	774.6 ± 3
343.15 K, 35000 kPa	777.6 ± 3.4
348.15 K, 100 kPa	738.4 ± 1.4
348.15 K, 2000 kPa	741.8 ± 1.5
348.15 K, 4000 kPa	745.6 ± 1.6
348.15 K, 6000 kPa	747.6 ± 1.7
348.15 K, 8000 kPa	750.2 ± 1.8
348.15 K, 10000 kPa	753 ± 1.9
348.15 K, 15000 kPa	757.7 ± 2.2
348.15 K, 20000 kPa	764 ± 2.4
348.15 K, 25000 kPa	768 ± 2.8
348.15 K, 30000 kPa	770.9 ± 3.1
348.15 K, 35000 kPa	773.7 ± 3.4
353.15 K, 2000 kPa	736.7 ± 1.5
353.15 K, 4000 kPa	741 ± 1.6
353.15 K, 6000 kPa	742.8 ± 1.7
353.15 K, 8000 kPa	745.5 ± 1.8
353.15 K, 10000 kPa	748.6 ± 1.9
353.15 K, 15000 kPa	753.3 ± 2.2
353.15 K, 20000 kPa	760.5 ± 2.5
353.15 K, 25000 kPa	764.6 ± 2.8
353.15 K, 30000 kPa	767.2 ± 3.1
353.15 K, 35000 kPa	769.9 ± 3.5
